Measurements published in paper PMC6934184, “Selective DNA-PKcs inhibition extends the therapeutic index of localized radiotherapy and chemotherapy” (The Journal of Clinical Investigation, 2019).

Target: T1, KIT V654A (Homo sapiens, UniProt P10721, V654A)
T1 construct: purchased Thermo Fisher Scientific (Life Technologies) SelectScreen
Experiment: SelectScreen LanthaScreen
Type: binding
Conditions: read-out: % displacement
In short: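 SelectScreen broad panel; activity (Z'LYTE, Adapta) plus binding formats. ATP: Km app for CSF1R Z'LYTE; 10 for CAMK1 Adapta. Readout = % per kinase.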

T1 sequence (P10721 26-976 V654A): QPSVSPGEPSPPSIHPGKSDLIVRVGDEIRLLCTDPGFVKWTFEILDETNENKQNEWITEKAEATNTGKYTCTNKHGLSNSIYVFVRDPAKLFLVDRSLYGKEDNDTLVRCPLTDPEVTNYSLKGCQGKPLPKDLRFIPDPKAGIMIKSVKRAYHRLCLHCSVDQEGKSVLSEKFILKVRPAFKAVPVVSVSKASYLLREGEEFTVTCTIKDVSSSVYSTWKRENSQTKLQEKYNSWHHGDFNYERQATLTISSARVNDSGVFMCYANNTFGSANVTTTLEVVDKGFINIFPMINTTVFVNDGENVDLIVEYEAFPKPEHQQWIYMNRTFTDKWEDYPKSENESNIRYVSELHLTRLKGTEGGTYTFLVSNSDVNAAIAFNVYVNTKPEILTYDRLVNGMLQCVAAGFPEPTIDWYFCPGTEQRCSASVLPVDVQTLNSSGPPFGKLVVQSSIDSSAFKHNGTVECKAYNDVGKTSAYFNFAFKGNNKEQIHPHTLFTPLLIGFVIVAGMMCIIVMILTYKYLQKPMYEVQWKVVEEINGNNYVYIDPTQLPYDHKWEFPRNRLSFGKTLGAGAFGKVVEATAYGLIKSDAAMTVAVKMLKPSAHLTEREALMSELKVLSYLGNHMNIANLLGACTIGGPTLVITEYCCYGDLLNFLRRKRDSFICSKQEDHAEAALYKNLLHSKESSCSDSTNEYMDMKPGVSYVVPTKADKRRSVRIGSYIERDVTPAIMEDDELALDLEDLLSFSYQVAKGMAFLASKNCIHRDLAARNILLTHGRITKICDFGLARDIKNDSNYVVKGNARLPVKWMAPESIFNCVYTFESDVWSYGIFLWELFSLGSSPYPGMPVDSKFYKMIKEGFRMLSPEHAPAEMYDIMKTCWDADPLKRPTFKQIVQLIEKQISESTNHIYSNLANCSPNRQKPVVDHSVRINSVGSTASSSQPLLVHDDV

Compound: CN(C(=O)CN1CCOCC1)c1ccc2sc3c(-c4cccc5c(=O)cc(N6CC7CCC(C6)O7)oc45)cccc3c2c1 [NU5455]
- inhibition at 1 µM: 8.1%
